In patent US9815854B2, “3-(3H-imidazo[4,5-B]pyridin-2-yl)-1H-pyrazolo[3,4-C]pyridine and therapeutic uses thereof” (Samumed, LLC, priority 2014, dated 2017):
pEC50, pIC50: −log10 of the molar value.

How the values were obtained:
[1] = system: Wnt activity (Sp5-Luc reporter, TCF/LEF binding sites) in SW480 colon carcinoma cells; assay: Sp5-Luc Wnt reporter gene screening assay in SW480 colon carcinoma cells; format: cell-based, human; settings: Homo sapiens
Method in brief: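 SW480 cells stably transduced with a lentiviral luciferase reporter driven by a Sp5 promoter with eight TCF/LEF sites were plated at 10,000/well in 10% FCS medium. Luminescence was normalised to DMSO and IC50 derived by four-parameter fit.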

[2] = system: primary human fibroblasts derived from IPF patients (LL29 cells); assay: Inhibition of the fibrotic process in TGF-β1-treated primary human fibroblasts from IPF patients (αSMA staining); format: cell-based; settings: Fibroblast, 96 h, TGF-β1 20 ng/mL, 4 days, read-out: Inhibition of fibrosis EC50
Source text: The above synthesized compounds were screened using primary human fibroblasts (derived from IPF patients) treated with TGF-β1 to determine their ability to inhibit the fibrotic process.
Human Fibroblast Celt Culture: Primary human fibroblasts derived from IPF patients (LL29 cells) [^1Xiaoqiu Liu, et.al., “Fibrotic Luna Fibroblasts Show Blunted Inhibition by cAMP Due to Deficient cAMP Response Element-Binding Protein Phosphorylation”, Journal of Pharmacology and Experimental Therapeutics (2005), 315(2), 678-687; ^2Watts, K. L., et.al., “RhoA signaling modulates cyclin D1 expression in human lung fibroblasts; implications for idiopathic pulmonary fibrosis”, Respiratory Research (2006), 7(1), 88] were obtained from American Type Culture Collection (ATCC) and expanded in F12 medium supplemented with 15% Fetal Bovine Serum and Penicillin/Streptomycin.
Compound Screening: Each compound was dissolved in DMSO as a 10 mM stock and used to prepare compound source plates. Serial dilution (1:2, 11-point dose-response curves from 10 μM to […]) and compound transfer was performed using the ECHO 550 (Lahcyte, Sunnyvale, Calif.) into 384-well clear bottom assay plates (Greiner Bio-One) with appropriate DMSO backfill fhr a final DMSO concentration of 0.1%. LL29 cells were plated at 1,500 cells/well in 80 μl/well F12 medium supplemented with 1% Fetal Bovine Serum. One hour after addition of the cells. TGF-β1 (Peprotech; 20 ng/mL) was added to the plates to induce fibrosis (ref. 1 and 2 above), Wells treated with TGF-β1 and containing DMSO were used as controls. Cells were incubated at 37° C. and 5% CO2 for 4 days. Following incubation for 4 days, SYTOX green nucleic acid stain (Life Technologies [Thermo Fisher Scientific]) was added to the wells at a final concentration of 1 uM and incubated at room temperature for 30 min. Cells were then fixed using 4% formaldehyde (Electron Microscopy Sciences), washed 3 times with PBS followed by blocking and penneabilization using 3% Bovine Serum Albumin (BSA; Sigma) and 0.3% Triton X-100 (Sigma) in PBS. Cells were then stained with antibody specific to α-smooth muscle actin (αSMA; Abeam) (ref 1 and 2 above) in 3% Bovine Serum Albumin (BSA; Sigma) and 0.3% Triton X-100 (Sigma) in PBS, and incubated overnight at 4° C. Cells were then washed 3 times with PBS, followed by incubation with Alexa Flor-647 conjugated secondary antibody (Life Technologies [Thermo Fisher Scientific]) and DAPI at room temperature for 1 hour, Cells were then washed 3 times with PBS and plates were sealed for imaging. αSMA staining was imaged by excitation at 630 nm and emission at 665 nm and quantified using the Compartmental Analysis program on the CellInsight CX5 (Thermo Scientific). Dead or apoptotic cells were excluded from analysis based on positive SYTOX green staining. % of total cells positive for αSMA were counted in each well and normalized to the average of 11 wells treated with TGF-β1 on the same plate using Dotmatics' Studies Software. The normalized averages (fold change over untreated) of 3 replicate wells for each compound concentration were used to create dose-responses curves and EC50 values were calculated using non-linear regression curve fit in the Dotmatics' Studies Software. The EC50 values are reported.

pIC50 [1]	SMILES	pEC50 [2]
7.10	CCCC(=O)Nc1cncc(-c2cc3c(-c4nc5c(-c6ccoc6)ccnc5[nH]4)n[nH]c3cn2)c1 [Compound 303, N-(5-(3-(7-(Furan-3-yl)-3H-imidazo[4,5-b]pyridin-2-yl)-1H-pyrazolo[3,4-c]pyridin-5-yl)pyridin-3-yl)butyramide]	7.70
7.22	CCCCC(=O)Nc1cncc(-c2cc3c(-c4nc5c(-c6ccoc6)ccnc5[nH]4)n[nH]c3cn2)c1 [Compound 304, N-(5-(3-(7-(Furan-3-yl)-3H-imidazo[4,5-b]pyridin-2-yl)-1H-pyrazolo [3,4c]pyridin-5-yl)pyridin-3-yl)pentanamide]	5.44
6.61	c1cc(-c2ccoc2)c2nc(-c3n[nH]c4cnc(-c5cncc(CNCC6CCCC6)c5)cc34)[nH]c2n1 [Compound 310, 1-Cyclopentyl-N-((5-(3-(7-(furan-3-yl)-3H-imidazo[4,5-b]pyridin-2-yl)-1H-pyrazolo[3,4-c]pyridin-5-yl)pyridin-3-yl)methyl)methanamine]	6.19
7.14	CCC(=O)Nc1cncc(-c2cc3c(-c4nc5c(-c6cccs6)ccnc5[nH]4)n[nH]c3cn2)c1 [Compound 313]	7.41
6.90	CN(C)c1cncc(-c2cc3c(-c4nc5c(-c6cccs6)ccnc5[nH]4)n[nH]c3cn2)c1 [Compound 319]	7.12
7.37	CC(C)(C)C(=O)Nc1cncc(-c2cc3c(-c4nc5c(-c6cccs6)ccnc5[nH]4)n[nH]c3cn2)c1 [Compound 320]	7.60
7.23	CC(C)Nc1cncc(-c2cc3c(-c4nc5c(-c6cccs6)ccnc5[nH]4)n[nH]c3cn2)c1 [Compound 324, N-Isopropyl-5-(3-(7-(thiophen-2-yl)-3H-imidazo[4,5-b]pyridin-2-yl)-1H-pyrazolo[3,4-c]pyridin-5-yl)pyridin-3-amine]	≤ 5.00
6.86	CN(C)Cc1cncc(-c2cc3c(-c4nc5c(-c6cccs6)ccnc5[nH]4)n[nH]c3cn2)c1 [Compound 325, N,N-Dimethyl-1-(5-(3-(7-(thiophen-2-yl)-3H-imidazo[4,5-b]pyridin-2-yl)-1H-pyrazolo[3,4-c]pyridin-5-yl)pyridin-3-yl)methanamine]	6.60
7.08	O=C(Nc1cncc(-c2cc3c(-c4nc5c(-c6cccs6)ccnc5[nH]4)n[nH]c3cn2)c1)C1CC1 [Compound 331]	6.50
7.61	FC1(F)CCN(Cc2cncc(-c3cc4c(-c5nc6c(-c7cccs7)ccnc6[nH]5)n[nH]c4cn3)c2)C1 [Compound 337]	6.94
7.57	CC(C)CC(=O)Nc1cncc(-c2cc3c(-c4nc5c(-c6ccc(F)s6)ccnc5[nH]4)n[nH]c3cn2)c1 [Compound 340, N -(5-(3-(7-(5-Fluorothiophen-2-yl)-3H-imidazo[4,5-b]pyridin-2-yl)-1H-pyrazolo[3,4-c]pyridin-5-yl)pyridin-3-yl)-3-methylbutanamide]	6.12
7.65	Cc1ccc(-c2ccnc3[nH]c(-c4n[nH]c5cnc(-c6cncc(N)c6)cc45)nc23)s1 [Compound 367, 5-(3-(7-(5-Methylthiophen-2-yl)-3H-imidazo[4,5-b]pyridin-2-yl)-1H-pyrazolo[3,4-c]pyridin-5-yl)pyridin-3-amine]	≥ 8.05
7.61	Cc1ccc(-c2ccnc3[nH]c(-c4n[nH]c5cnc(-c6cncc(NC(=O)C(C)(C)C)c6)cc45)nc23)s1 [Compound 372, N-(5-(3-(7-(5-Methylthiophen-2-yl)-3H-imidazo[4,5-b]pyridin-1)-1H-pyrazolo[3,4-c]pyridin-5-yl)pyridin-3-yl)pivalamide]	6.66
7.79	Cc1ccc(-c2ccnc3[nH]c(-c4n[nH]c5cnc(-c6cncc(NC(=O)C(C)C)c6)cc45)nc23)s1 [Compound 373, N-(5-(3-(7-(5-Methylthiophen-2-yl)-3H-imidazo[4,5-b]pyridin-2-yl)-1H-pyrazolo[3,4-c]pyridin-5-yl)pyridin-3-yl)isobutyramide]	≥ 8.05
7.97	Cc1ccc(-c2ccnc3[nH]c(-c4n[nH]c5cnc(-c6cncc(NC(C)C)c6)cc45)nc23)s1 [Compound 376, N-Isopropyl-5-(3-(7-(5-methylthiophen-2-yl)-3H-imidazo[4,5-b]pyridin-2-yl)-1H-pyrazolo[3,4-c]pyridin-5-yl)pyridin-3-amine]	≤ 5.00
6.74	Cc1ccc(-c2ccnc3[nH]c(-c4n[nH]c5cnc(-c6cncc(CN7CCCCC7)c6)cc45)nc23)s1 [Compound 379, 3-(7-(5-Methylthiophen-2-yl)-3H-imidazo[4,5-b]pyridin-2-yl)-5-(5-(piperidin-1-ylmethyl)pyridin-3-yl)-1H-pyrazolo[3,4-c]pyridine]	6.52
7.07	Cc1ccc(-c2ccnc3[nH]c(-c4n[nH]c5cnc(-c6cncc(NC(=O)C7CCCC7)c6)cc45)nc23)s1 [Compound 385]	6.97
< 5.00	CC(=O)c1ccc(-c2ccnc3[nH]c(-c4n[nH]c5cnc(-c6cncc(NC(=O)CC(C)(C)C)c6)cc45)nc23)s1 [Compound 406, N-(5-(3-(7-(5-Acetylthiophen-2-yl)-3H-imidazo[4,5-b]pyridin-2-yl)-1H-pyrazolo[3,4-c]pyridin-5-yl)pyridin-3-yl)-3,3-dimethylbutanamide]	≤ 5.00
< 5.00	CC(=O)c1ccc(-c2ccnc3[nH]c(-c4n[nH]c5cnc(-c6cncc(NC(=O)C7CCCCC7)c6)cc45)nc23)s1 [Compound 412, N-(5-(3-(7-(5-Acetylthiophen-2-yl)-3H-imidazo[4,5-b]pyridin-2-yl)-1H-pyrazolo[3,4-c]pyridin-5-yl)pyridin-3-yl)cyclohexanecarboxamide]	≤ 5.00
< 5.00	CS(=O)(=O)NCc1cc(F)cc(-c2ccnc3[nH]c(-c4n[nH]c5cnc(-c6cncc(NC(=O)c7ccccc7)c6)cc45)nc23)c1 [Compound 427, N-(5-(3-(7-(3-Fluoro-5-(methylsulfonamidomethyl)phenyl)-3H-imidazo[4,5-b]pyridin-2-yl)-1H-pyrazolo[3,4-c]pyridin-5-yl)pyridin-3-yl)benzamide]	≤ 5.00
< 5.00	CCCC(=O)Nc1cncc(-c2cc3c(-c4nc5c(-c6cc(F)cc(CNS(C)(=O)=O)c6)ccnc5[nH]4)n[nH]c3cn2)c1 [Compound 433, N-(5-(3-(7-(3-Fluoro-5-(methylsulfonamidomethyl)phenyl)-3H-imidazo[4,5-b]pyridin-2-yl)-1H-pyrazolo[3,4-c]pyridin-5-yl)pyridin-3-yl)butyramide]	≤ 5.00
< 5.00	CS(=O)(=O)NCc1cc(F)cc(-c2ccnc3[nH]c(-c4n[nH]c5cnc(-c6cncc(CNCc7ccccc7)c6)cc45)nc23)c1 [Compound 439, N-(3-(2-(5-(5-((Benzylamino)methyl)pyridin-3-yl)-1H-pyrazolo[3,4-c]pyridin-3-yl)-3H-imidazo[4,5-b]pyridin-7-yl)-5-fluorobenzyl)methanesulfonamide]	≥ 8.05
< 5.00	CS(=O)(=O)NCc1cc(F)cc(-c2ccnc3[nH]c(-c4n[nH]c5cnc(-c6cncnc6)cc45)nc23)c1 [Compound 442, N-(3-Fluoro-5-(2-(5-(pyrimidin-5-yl)-1H-pyrazolo[3,4-c]pyridin-3-yl)-3H-imidazo[4,5-b]pyridin-7-yl)benzyl)methanesulfonamide]	≤ 5.00
7.02	CC(C)Nc1cncc(-c2cc3c(-c4nc5c(-c6cc(F)cc(NCCN(C)C)c6)ccnc5[nH]4)n[nH]c3cn2)c1 [Compound 454, N^1-(3-Fluoro-5-(2-(5-(5-(isopropylamino)pyridin-3-yl)-1H-pyrazolo[3,4-c]pyridin-3-yl)-3H-imidazo[4,5-b]pyridin-7-yl)phenyl)—N^2,N^2-dimethylethane-1,2-diamine]	6.13
